This is an account of results in ChEMBL document CHEMBL1201862, “PubChem BioAssay data set” (2004).

Test systems include 786-0; COLO 205; HCC 2998; HCT-116; IGROV-1; K562; KM12; MOLT-4; NCI-H460; OVCAR-4; OVCAR-5; OVCAR-8; SF-268; SN12C; UACC-257; UACC-62; RPMI-8226.
Common to all, as to test: growth of human tumour cells (NCI), 48 h

SMILES strings stand for the structures.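 In this assay, cells in 96-well plates receive the compound at five concentrations for 48 hours. Endpoints are linearly interpolated between the surrounding concentrations. GI50 marks 50% less growth.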 The source made the active and inactive calls. No stated cut-off is given here; in the data, active = GI50 up to about 1.1 µM and inactive = higher.

On to `CCc1cccc(=O)c([O-])c1.CCc1cccc(=O)c([O-])c1.[Bi+3].[Cl-]`, for which the GI50 is 9.1 µM (inactive) with 786-0; 2.29 µM (inactive) in the assay on COLO 205; 5.93 µM (inactive) in the assay with HCC 2998; 7.45 µM (inactive) with HCT-116; 6.78 µM (inactive) in the assay on IGROV-1; 2.81 µM (inactive) with K562. Moreover, the GI50 was 12.4 µM (inactive) in the assay on KM12; 2.22 µM (inactive) with MOLT-4; 6.49 µM (inactive) in the assay with NCI-H460; 13.6 µM (inactive) with OVCAR-4; 16.5 µM (inactive) in the assay with OVCAR-5; 2.96 µM (inactive) in the assay on OVCAR-8. The GI50 is 5.21 µM (inactive) in the assay with SF-268, 10.2 µM (inactive) with SN12C, 6.58 µM (inactive) with UACC-257 and 9.98 µM (inactive) with UACC-62.

For the compound `Cc1ccc(C(=O)/C=C2\Nc3c(c(=O)oc4ccccc34)N=C2NC23CC4CC(CC(C4)C2)C3)cc1`, the GI50 in the assay on 786-0, in the assay on COLO 205, in the assay on HCC 2998, in the assay on HCT-116, with IGROV-1 and with K562 was > 100 µM (inactive) throughout. Moreover, the GI50 with KM12, with MOLT-4, in the assay with NCI-H460, in the assay on OVCAR-5, in the assay with OVCAR-8 and in the assay on RPMI-8226 was > 100 µM (inactive) each time. In addition, the GI50 in the assay with SF-268, in the assay with SN12C, in the assay with UACC-257 and with UACC-62 was > 100 µM (inactive) throughout.

Consider `CN(C)CCNC(=O)c1ccc(Cl)c2c(Nc3ccc(S(=O)(=O)N=C(N)N)cc3)c3ccccc3nc12`, for which the GI50 in the assay on 786-0 is 14.3 µM (inactive); with COLO 205 it was 3.78 µM (inactive); in the assay with HCC 2998, 8.17 µM (inactive); in the assay with HCT-116 it was 3.9 µM (inactive); with IGROV-1, 3.55 µM (inactive); in the assay with K562, 2.77 µM (inactive). Also, the GI50 was 4.21 µM (inactive) with KM12; 0.358 µM (active) in the assay with MOLT-4; 1.63 µM (inactive) in the assay on NCI-H460; 1.87 µM (inactive) with OVCAR-4; > 10 µM (inactive) in the assay on OVCAR-5; 2.24 µM (inactive) with OVCAR-8. Also, the values for the GI50 in the assay on SF-268, in the assay on SN12C and in the assay with UACC-62 were 3.48 µM (inactive), 3.15 µM (inactive) and 5.42 µM (inactive), respectively.

On to `C1=C2/CC[C@H](Sc3ccccc3)[C@H]2C2(CCCCC/1)OCCO2`, for which the GI50 is 40.2 µM (inactive) in the assay on 786-0; 19.5 µM (inactive) in the assay on COLO 205; 22.3 µM (inactive) in the assay with HCC 2998; 39.8 µM (inactive) in the assay with HCT-116; 54.7 µM (inactive) in the assay on IGROV-1; 32.1 µM (inactive) with K562. The GI50 in the assay on KM12 is 29.9 µM (inactive); with NCI-H460 it was 63.4 µM (inactive); in the assay on OVCAR-5, 29.5 µM (inactive); in the assay with OVCAR-8 it was 26.7 µM (inactive); with RPMI-8226 it was 24.4 µM (inactive); in the assay on SF-268 it was 82.8 µM (inactive). The GI50 is > 100 µM (inactive) in the assay with SN12C, 20.2 µM (inactive) with UACC-257 and 19.6 µM (inactive) in the assay on UACC-62.

Regarding `CC1=CP(=O)(OC(C)C)CC(C)=C1Cl` (stereo not drawn), the GI50 in the assay with 786-0, in the assay with COLO 205, with HCC 2998, with HCT-116, in the assay with IGROV-1 and in the assay with K562 was > 100 µM (inactive) in each case. Further, the GI50 was > 100 µM (inactive) in the assay on KM12; 32.7 µM (inactive) with MOLT-4; > 100 µM (inactive) in the assay with NCI-H460; > 100 µM (inactive) with OVCAR-5; > 100 µM (inactive) in the assay on OVCAR-8; 94.8 µM (inactive) with RPMI-8226. In addition, the GI50 is 82.6 µM (inactive) with SF-268, > 100 µM (inactive) with SN12C, > 100 µM (inactive) in the assay with UACC-257 and > 100 µM (inactive) in the assay on UACC-62.

As to `Brc1cc2c(cc1C1SCCS1)OCO2`, the GI50 was > 100 µM (inactive) with 786-0; > 100 µM (inactive) in the assay with HCC 2998; > 100 µM (inactive) with HCT-116; > 100 µM (inactive) in the assay with IGROV-1; 59.2 µM (inactive) in the assay on K562; > 100 µM (inactive) in the assay with KM12. Besides, the GI50 with MOLT-4 was 80.4 µM (inactive); in the assay on NCI-H460 it was > 100 µM (inactive); in the assay with OVCAR-4, > 100 µM (inactive); in the assay on OVCAR-5, > 100 µM (inactive); with OVCAR-8, > 100 µM (inactive); in the assay with RPMI-8226, 89.5 µM (inactive). Moreover, the GI50 in the assay on SF-268, in the assay with UACC-257 and in the assay with UACC-62 was > 100 µM (inactive) in each case.

For the compound `COc1ccc2cccc(C(=O)c3ccc(C)c4c3CCC4)c2c1`, the GI50 with 786-0 is 24.8 µM (inactive); in the assay with COLO 205, 29 µM (inactive); with HCC 2998, 19.6 µM (inactive); in the assay with HCT-116, 37.7 µM (inactive); in the assay on IGROV-1, 24.6 µM (inactive); in the assay on K562 it was 30.8 µM (inactive). The GI50 in the assay on KM12 was 26.1 µM (inactive); in the assay with MOLT-4 it was 27.6 µM (inactive); in the assay on NCI-H460, 20.3 µM (inactive); with OVCAR-4, 85.5 µM (inactive); with OVCAR-5 it was 34.3 µM (inactive); in the assay with OVCAR-8 it was 43.2 µM (inactive). The GI50 with SF-268 was > 100 µM (inactive); in the assay on SN12C, 71.9 µM (inactive); with UACC-257, 30.1 µM (inactive); in the assay with UACC-62, 25.4 µM (inactive).

For the compound `CN1C(=O)CCC2[C@@H]3CC=C4C[C@@H](O)CC[C@]4(C)C3CC[C@@]21C` (stereo partly drawn), the GI50 in the assay with 786-0 was 94.4 µM (inactive); in the assay on HCC 2998, > 100 µM (inactive); in the assay on HCT-116, 33.5 µM (inactive); with IGROV-1, 96.2 µM (inactive); in the assay with K562 it was 21.3 µM (inactive); with KM12 it was 59.8 µM (inactive). Also, the GI50 is 18.5 µM (inactive) in the assay with MOLT-4; 45 µM (inactive) in the assay on NCI-H460; 33.4 µM (inactive) in the assay on OVCAR-4; 97.7 µM (inactive) with OVCAR-5; 64.9 µM (inactive) with OVCAR-8; 20.8 µM (inactive) with RPMI-8226. The GI50 with UACC-257 was 20.3 µM (inactive); with UACC-62 it was 62.4 µM (inactive).

Turning to `O=C(N[C@H]1CC2(C=C(I)C(=O)C(I)=C2)OC1=O)OCc1ccccc1`, the GI50 in the assay with 786-0 is 20.8 µM (inactive); in the assay on COLO 205 it was 14.5 µM (inactive); in the assay with HCC 2998, 17.9 µM (inactive); with HCT-116, 15.9 µM (inactive); in the assay on K562, 10.4 µM (inactive); in the assay on KM12 it was 16 µM (inactive). The GI50 with NCI-H460 is 21.1 µM (inactive); in the assay with OVCAR-4 it was 18.4 µM (inactive); in the assay with OVCAR-5 it was 18.9 µM (inactive); in the assay on OVCAR-8 it was 17.3 µM (inactive); with RPMI-8226 it was 26.2 µM (inactive); with SF-268, 18.1 µM (inactive). Moreover, the GI50 was 18.2 µM (inactive) with SN12C, 16.4 µM (inactive) in the assay with UACC-257 and 16.5 µM (inactive) with UACC-62.
